Laboratory results from PubChem BioAssay (NCI).
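Dose response: 5 concentrations. Exposure: 48 h. Format: 96-well plates. Endpoint: linear interpolation; highest concentration if not reached. GI50 marks 50% less growth. At the TGI there is no net growth.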

Assays:
Assay in all cases: growth of human tumour cells (NCI), 48 h
SF-295 CNS = system: SF-295 CNS
EKVX NSCLC = system: EKVX NSCLC
HCC-2998 colon = system: HCC-2998 colon
SK-MEL-28 melanoma = system: SK-MEL-28 melanoma
HL-60(TB) leukemia = system: HL-60(TB) leukemia
OVCAR-5 ovarian = system: OVCAR-5 ovarian
MALME-3M melanoma = system: MALME-3M melanoma
DU-145 prostate = system: DU-145 prostate
MDA-MB-231 breast = system: MDA-MB-231 breast
NCI/ADR-RES ovarian = system: NCI/ADR-RES ovarian
U251 CNS = system: U251 CNS
ACHN renal = system: ACHN renal
HT29 colon = system: HT29 colon
786-0 renal = system: 786-0 renal
SK-MEL-5 melanoma = system: SK-MEL-5 melanoma
CAKI-1 renal = system: CAKI-1 renal
COLO 205 colon = system: COLO 205 colon
MCF7 breast = system: MCF7 breast
SN12C renal = system: SN12C renal
SW-620 colon = system: SW-620 colon
HOP-92 NSCLC = system: HOP-92 NSCLC
SNB-75 CNS = system: SNB-75 CNS
HS 578T breast = system: HS 578T breast
RPMI-8226 leukemia = system: RPMI-8226 leukemia
UACC-257 melanoma = system: UACC-257 melanoma
UO-31 renal = system: UO-31 renal
SF-539 CNS = system: SF-539 CNS
T-47D breast = system: T-47D breast
SK-MEL-2 melanoma = system: SK-MEL-2 melanoma
NCI-H226 lung = system: NCI-H226 lung
MOLT-4 leukemia = system: MOLT-4 leukemia
NCI-H522 lung = system: NCI-H522 lung
LOX IMVI melanoma = system: LOX IMVI melanoma
HOP-62 NSCLC = system: HOP-62 NSCLC
K-562 leukemia = system: K-562 leukemia
SK-OV-3 ovarian = system: SK-OV-3 ovarian
RXF 393 renal = system: RXF 393 renal
UACC-62 melanoma = system: UACC-62 melanoma
MDA-MB-435 = system: MDA-MB-435
M14 melanoma = system: M14 melanoma
SNB-19 CNS = system: SNB-19 CNS
OVCAR-8 ovarian = system: OVCAR-8 ovarian
HCT-15 colon = system: HCT-15 colon
OVCAR-4 ovarian = system: OVCAR-4 ovarian
SF-268 CNS = system: SF-268 CNS
IGROV1 ovarian = system: IGROV1 ovarian
TK-10 renal = system: TK-10 renal
KM12 colon = system: KM12 colon
NCI-H460 lung = system: NCI-H460 lung
HCT-116 colon = system: HCT-116 colon
PC-3 prostate = system: PC-3 prostate
CCRF-CEM leukemia = system: CCRF-CEM leukemia
BT-549 breast = system: BT-549 breast
A549 NSCLC = system: A549 NSCLC
A498 renal = system: A498 renal

## N#CCc1nc(-c2cc3c(ccc4ccccc43)oc2=O)cs1
SF-295 CNS
  TGI: 71.2 µM
EKVX NSCLC
  TGI: > 100 µM
HCC-2998 colon
  TGI: > 100 µM
SK-MEL-28 melanoma
  TGI: > 100 µM
HL-60(TB) leukemia
  TGI: > 100 µM
OVCAR-5 ovarian
  TGI: > 100 µM
MALME-3M melanoma
  TGI: > 100 µM
DU-145 prostate
  TGI: > 100 µM
MDA-MB-231 breast
  TGI: 39 µM
NCI/ADR-RES ovarian
  TGI: 70.2 µM
U251 CNS
  TGI: 38.5 µM
ACHN renal
  TGI: 79.1 µM
HT29 colon
  TGI: > 100 µM
786-0 renal
  TGI: 51.6 µM
SK-MEL-5 melanoma
  TGI: > 100 µM
CAKI-1 renal
  TGI: > 100 µM
COLO 205 colon
  TGI: > 100 µM
MCF7 breast
  TGI: > 100 µM
SN12C renal
  TGI: > 100 µM
SW-620 colon
  TGI: > 100 µM
HOP-92 NSCLC
  TGI: 44.5 µM
SNB-75 CNS
  TGI: 20.4 µM
HS 578T breast
  TGI: 63.4 µM
RPMI-8226 leukemia
  TGI: > 100 µM
UACC-257 melanoma
  TGI: 75.7 µM
UO-31 renal
  TGI: > 100 µM
SF-539 CNS
  TGI: 51.4 µM
T-47D breast
  TGI: > 100 µM
SK-MEL-2 melanoma
  TGI: 72.4 µM
NCI-H226 lung
  TGI: 81.2 µM
MOLT-4 leukemia
  TGI: > 100 µM
NCI-H522 lung
  TGI: 27.4 µM
LOX IMVI melanoma
  TGI: > 100 µM
HOP-62 NSCLC
  TGI: 32.2 µM
K-562 leukemia
  TGI: > 100 µM
SK-OV-3 ovarian
  TGI: 77 µM
RXF 393 renal
  TGI: 74 µM
UACC-62 melanoma
  TGI: 68.4 µM
MDA-MB-435
  TGI: > 100 µM
M14 melanoma
  TGI: > 100 µM
SNB-19 CNS
  TGI: 36.4 µM
OVCAR-8 ovarian
  TGI: > 100 µM
HCT-15 colon
  TGI: > 100 µM
OVCAR-4 ovarian
  TGI: 60.4 µM
SF-268 CNS
  TGI: > 100 µM
IGROV1 ovarian
  TGI: 43.7 µM
TK-10 renal
  TGI: 38.9 µM
KM12 colon
  TGI: > 100 µM
NCI-H460 lung
  TGI: > 100 µM
HCT-116 colon
  TGI: > 100 µM
PC-3 prostate
  TGI: > 100 µM
CCRF-CEM leukemia
  TGI: > 100 µM
BT-549 breast
  TGI: 31.5 µM
A549 NSCLC
  TGI: > 100 µM

## Cc1ccc(S(=O)(=O)OC[C@@]2(C)CC[C@]3(C)CC[C@]4(C)C(=CC[C@@H]5[C@@]6(C)CCCNC(C)(C)[C@@H]6CC[C@]54C)[C@@H]3C2)cc1
SK-MEL-28 melanoma
  GI50: 1.75 µM
  TGI: 3.21 µM
OVCAR-5 ovarian
  GI50: 1.74 µM
  TGI: 3.2 µM
DU-145 prostate
  GI50: 1.68 µM
  TGI: 3.13 µM
NCI/ADR-RES ovarian
  GI50: 2.02 µM
  TGI: 4.87 µM
CAKI-1 renal
  GI50: 1.6 µM
  TGI: 2.94 µM
A498 renal
  GI50: 1.66 µM
  TGI: 3.16 µM
SW-620 colon
  GI50: 1.32 µM
  TGI: 2.82 µM
SNB-75 CNS
  GI50: 1.59 µM
  TGI: 3.1 µM
HS 578T breast
  GI50: 1.86 µM
  TGI: 4 µM
UO-31 renal
  GI50: 1.39 µM
  TGI: 2.87 µM
SK-MEL-2 melanoma
  GI50: 1.82 µM
  TGI: 3.34 µM
RXF 393 renal
  GI50: 1.63 µM
  TGI: 3.33 µM
UACC-62 melanoma
  GI50: 1.83 µM
  TGI: 3.32 µM
KM12 colon
  GI50: 1.82 µM
  TGI: 3.43 µM
NCI-H460 lung
  GI50: 1.36 µM
  TGI: 2.85 µM
